The source of these data is patent US20070107143A1, “Oxidative treatment of hair with reduced hair damage” (priority 2001, published 2007).

Series [1] can be described thus: FT-IR Damage Assessing Protocol after 5-Cycle Oxidative Hair Treatment Protocol With 2 Intermediate Washes. Details: species or system human. The note with it: for Damage after 5 cycles (cysteic acid units): 2 intermediate washes, pH 10. The protocol:
For each chelant tested, seven switches of virgin dark hair were used. […] The switches usually weighed about 1.5 g each and are treated stepwise according to the following protocol.
A bleaching composition comprising the chelant to be tested is prepared by mixing in equal weight amounts a hydrogen peroxide emulsion base and an alkaline (high pH) emulsion base.
2 g Of the bleaching composition per g of hair to be treated was applied on the hair switches and massaged in thoroughly. The hair switches were then wrapped in a plastic film and put in an oven at 30° C. After 30 mn, they were removed from the oven and from the wrapping film and rinsed for 1 mn in water. 0.1 g of shampoo per g. of hair was then added and milked for 30 s at a rate of at least 150 strokes a minute before rinsing for 30 s. […] The concentration of copper (Cu^2+) ions was kept at about 1 ppm (+/−10%), the exact concentrations being measured by a standard analytic method. The rinsing water flow was adjusted to 6 liters per minute). The same shampooing and rinsing process was repeated another time (this is the “Oxidative Hair Treatment Protocol With 2 Intermediate Washes” referred to in the claims) or 9 additional times (this is the “Oxidative Hair Treatment Protocol With 10 Intermediate Washes” referred to in the claims) depending on the Damage Assessment Protocol used. The excess water was then squeezed out of the hair, and the hair dried with a fan. Any standard shampoo can be used in this protocol as long as it is free from transition metal ions such as copper ion and that the level chelants is less than 0.1% by weight of the shampoo. Prell® shampoo was using during these tests.
This Oxidative Hair Treatment Protocol can be repeated several times. […] This process is described as a 5-Cycle Oxidative Hair Treatment Protocol With 2 or 10 Intermediate Washes.
In particular, these authors have shown that the method is suitable for quantifying the amount of cysteic acid that is produced from the oxidation of cystine. In general, the oxidation of cystine is thought to be a suitable marker by which to monitor the overall oxidation of the keratinous part of the fiber.
They have shown that this technique is more suitable than using the FT-IR method in simple transmission or microscope modes. […] The detailed description of the method used for testing the different damage inhibitors follows thereafter:
A Perkin Elmer Spectrum® 1 Fourier Transform Infrared (FTIR) system equipped with a diamond Attenuated Total Internal Reflection (ATR) cell was used to measure the cysteic acid concentration in human hair. In this method, hair switches of various sizes and colours can be used. The switches were platted (˜1 plait per cm) in order to minimize variations in surface area of contact between readings. The Oxidative Hair Treatment Protocol described above was repeated for 5 cycles to mimic the behavior of hair after repeated bleaching cycles. Following this treatment, four readings per switch were taken (˜⅓ and ⅔ s down the switch on both sides), and an average calculated. Backgrounds were collected every 4 readings, and an ATR cell pressure of 1N/m was employed. The cell was cleaned with ethanol between each reading, and a contamination check performed using the monitor ratio mode of the instrument. […] The original spectra were initially converted to absorbance, before being normalized to the 1450 cm^−1 band (the characteristic and invariant protein CH2 stretch). This normalized absorbance was then twice derivatised using a 13 point averaging. The value of the 1450 cm^−1 normalized 2nd derivative of the absorbance at 1040 cm^−1 was taken as the relative concentration of cysteic acid. This figure was multiplied by −1×10^−4 to recast it into suitable units. […] The following instrumental conditions were employed:
The weight percentages for each chelant are indicated in the first line of the table below.

Series [2] is described as follows: log Conditional Stability Constant at pH 10 with Cu. Conditions: for Ratio Cu/Ca of log Conditional Stability Constants: log KCuL / log KCaL.
A short description of series [3]: Hydrogen Peroxide Decomposition Ratio Measurement Protocol. Conditions: for Peroxide % at t = 0 / Peroxide % at t = 30mn / Hydrogen Peroxide Decomposition Ratio (% Loss): pH 10, 300 ppm copper sulphate, 0.026M chelant; for Hydrogen Peroxide Decomposition Ratio (% Loss): after 30 minutes.
Procedure: The Hydrogen Peroxide Decomposition Ratio Measurement Protocol is defined as follows: 6.0% by weight of concentrated ammonium hydroxide (30% active ammonia) is added to deionised water and the pH of the solution is adjusted to 10 using acetic acid. 300 ppm of copper sulphate and 0.026M of the chelant to be tested are added to said composition. […] The initial level of hydrogen peroxide is measured at this moment (t=0); the final level of hydrogen peroxide is measured after 30 minutes. The value of the ratio of the hydrogen peroxide concentration at t=0 and at t=30 mn is the Hydrogen Peroxide Decomposition Ratio (% Loss).
The initial and final level of hydrogen peroxide can be measured according to any standard technique. The following is a well-known and standard technique that was used by the inventors: 0.2-0.3 g (the exact quantity being precisely measured) of the solution to be titrated is added to 40 ml of 10% acetic acid. […] The level of hydrogen peroxide (% Peroxide) is then calculated from the following equation: [formula]
Three replicate runs are made at both t=0 and t=30 mn and then averaged to calculate the Hydrogen Peroxide Decomposition Ratio (% Loss).
For series [4] the following is noted: 25deg, 0.1M ionic strength; fully deprotonated chelants; cited from earlier work.
The conditions of series [5]: 25deg, 0.1M ionic strength; fully deprotonated chelants; cited from earlier work. The source holds these as a separate data set.
Series [6] is described as follows: Goniophotometer Damage Assessing Protocol after Oxidative Hair Treatment Protocol With 10 Intermediate Washes. The arrangement: species or system human. The protocol: A bleaching composition comprising the chelant to be tested is prepared by mixing in equal weight amounts a hydrogen peroxide emulsion base and an alkaline (high pH) emulsion base. 2 g Of the bleaching composition per g of hair to be treated was applied on the hair switches and massaged in thoroughly. The hair switches were then wrapped in a plastic film and put in an oven at 30° C. […] The rinsing water flow was adjusted to 6 liters per minute). […] The excess water was then squeezed out of the hair, and the hair dried with a fan. […] Prell® shampoo was using during these tests. This Oxidative Hair Treatment Protocol can be repeated several times.

For series [7] the following is noted: tetra-protonated chelants; cited from earlier work.
Series [8] can be described thus: log Conditional Stability Constant at pH 10 with Ca.
Assay in series [9]: not given
The source holds these as a separate data set.

The mark [10] stands for this setting: 2.0% weight on-head (tetra-sodium EDTA, di-sodium HEDP), 5 cycles.
Setting [11] is: 1.9% weight on-head, tri-sodium salt, 5 cycles.
Setting [12] is: 3.8% weight on-head, tetra-sodium salt, 5 cycles.

Read-outs that look alike come from different tables or passages of the source.

On to `O=C(O)CN(CCN(CC(=O)O)CC(=O)O)CC(=O)O` [EDTA, ethylenediaminetetraacetic acid], for which the “Damage after 5 cycles (cysteic acid units)” value (from here on “Damage after 5 cycles”) in series [1] (setting [10]) was found to be 165 cysteic acid units. For the same compound, the “Damage prevention properties (in words)” value in [1] (real conditions of use, high copper and Ca^2+ concentrations) is “very poor damage prevention properties”. Also, the “Damage benefit (in words)” value in [1] (unless utilized at levels much higher than 0.1%) is listed as “very little benefits”. In addition, the “log Conditional Stability Constant (pH 10) Cu” value in series [2] was determined as 16.37. Further, the “Capacity at inhibiting the red-ox chemistry of copper (in words)” value in [3] (lab condition, de-ionized water) is listed as “very good capacity”. Moreover, in [3], the “Peroxide % at t = 0” value is 3.576% and the “Peroxide % at t = 30mn” value was found to be 3.573%. Moreover, in series [4], the “log K (stability constant, 1:1 complex) Cu” value is on record as 18.78. In addition, in series [5], the “log K (stability constant, 1:1 complex) Ca” value is given as 10.65.
With `O=C(O)CC(NCCNC(CC(=O)O)C(=O)O)C(=O)O` (stereo not drawn) [EDDS, ethylenediamine-N,N′-disuccinic acid], the “Normalized shine ratio (hair treated after 9 cycles/ virgin hair)” value (from here on “Normalized shine ratio”) in series [6] (0.95 weight %, tri-sodium salt) is 1.03. In addition, the “Hair damage compared with any other chelant (in words)” value in series [1] (1.9% by weight, 5 cycles) is given as “much less damage”. In [1] (setting [11]), the “Damage benefit vs EDTA 2%” value is “+33%” and the “Damage after 5 cycles” value turned out to be 110 cysteic acid units. Moreover, in series [1] (concentrations much lower than 1.9% by weight on head), the “Damage benefit (in words)” value was “excellent benefits”. Moreover, in series [2], the “log Conditional Stability Constant (pH 10) Cu” value was 16.04 and the “Ratio Cu/Ca of log Conditional Stability Constants” value stood at 3.76. Also, in series [7], the “log protonation constant H2L^2−” value was 6.84, the “log protonation constant H3L^−” value is recorded as 3.86, the “log protonation constant H4L” value was 2.95 and the “log protonation constant HL^3−” value was 10.01. Also, in [3], the “Hydrogen Peroxide Decomposition Ratio (% Loss)” value turned out to be 1.5%, the “Peroxide % at t = 0” value stood at 3.150% and the “Peroxide % at t = 30mn” value was 3.104%. Also, the “log K (stability constant, 1:1 complex) Cu” value in [4] is given as 18.35. Further, the “log Conditional Stability Constant (pH 10) Ca” value in series [8] was found to be 4.27. Further, the “log K (stability constant, 1:1 complex) Ca” value in [5] was 4.58.
Turning to `O=P(O)(O)CN(CCN(CP(=O)(O)O)CP(=O)(O)O)CCN(CP(=O)(O)O)CP(=O)(O)O` [DTPMP, diethylene-triamine-penta-(methylenephosphonic acid)], the “log Conditional Stability Constant (pH 10) Ca” value was 4.74. Besides, in series [1] (setting [12]), the “Damage benefit vs EDTA 2%” value is recorded as “+14%” and the “Damage after 5 cycles” value was found to be 142 cysteic acid units. Besides, the “log Conditional Stability Constant (pH 10) Cu” value in series [9] is on record as 15.14. Also, in series [3], the “Peroxide % at t = 0” value amounted to 3.078% and the “Peroxide % at t = 30mn” value is reported as 2.964%.
Regarding `CC(C(=O)O)N(CC(=O)O)CC(=O)O` (stereo not drawn) [MGDA, methylglycinediacetic acid], in series [3], the “Hydrogen Peroxide Decomposition Ratio (% Loss)” value was found to be 11.3%, the “Peroxide % at t = 0” value is 3.498% and the “Peroxide % at t = 30mn” value stood at 3.104%.
As for `CC(O)(P(=O)(O)O)P(=O)(O)O` [HEDP, 1-hydroxyethane-1,1-diphosphonic acid], the “Normalized shine ratio” value in series [6] (1.0 weight % (tetra-sodium EDTA, di-sodium HEDP)) amounted to 0.730. The “Damage after 5 cycles” value in [1] (setting [10]) was 163 cysteic acid units. Moreover, in series [1] (2.0% weight on-head, di-sodium salt, 5 cycles), the “Damage benefit vs EDTA 2%” value is given as “+1%”. In series [2], the “log Conditional Stability Constant (pH 10) Cu” value is listed as 8.98 and the “Ratio Cu/Ca of log Conditional Stability Constants” value is given as 1.75. Further, in series [7], the “log protonation constant H2L^2−” value is listed as 6.88, the “log protonation constant H3L^−” value is 2.53, the “log protonation constant H4L” value is recorded as 1.8 and the “log protonation constant HL^3−” value was 10.8. Moreover, in series [3], the “Hydrogen Peroxide Decomposition Ratio (% Loss)” value amounted to 32.3%, the “Peroxide % at t = 0” value stood at 4.126% and the “Peroxide % at t = 30mn” value came to 2.792%. Moreover, in series [4], the “log K (stability constant, 1:1 complex) Cu” value is recorded as 11.84. The “log Conditional Stability Constant (pH 10) Ca” value in series [8] was found to be 5.13. Further, the “log K (stability constant, 1:1 complex) Ca” value in series [5] was 6.0.
For `O=C(O)CC(NCC(O)CNC(CC(=O)O)C(=O)O)C(=O)O` (stereo not drawn) [HPPDS, 2-hydroxypropylenediamine-N,N′-disuccinic acid], the “Normalized shine ratio” value in [6] (0.97 weight %, tetra-sodium salt) is recorded as 1.00.
